Experimental data published in ChEMBL document CHEMBL3352194, “The discovery of benzenesulfonamide-based potent and selective inhibitors of voltage-gated sodium channel Na(v)1.7” (Bioorg Med Chem Lett, 2014).

Columns and labels:
[1] = target: Sodium channel protein type 9 subunit alpha (Homo sapiens, UniProt Q15858); test: Inhibition of human Nav1.7 expressed in HEK cells assessed as reduction in sodium current at -60 mV holding potential by PatchXpress platform based whole cell patch clamp electrophysiological assay; parameters: species or system HEK293
Sequence of Sodium channel protein type 9 subunit alpha (Q15858 whole entry): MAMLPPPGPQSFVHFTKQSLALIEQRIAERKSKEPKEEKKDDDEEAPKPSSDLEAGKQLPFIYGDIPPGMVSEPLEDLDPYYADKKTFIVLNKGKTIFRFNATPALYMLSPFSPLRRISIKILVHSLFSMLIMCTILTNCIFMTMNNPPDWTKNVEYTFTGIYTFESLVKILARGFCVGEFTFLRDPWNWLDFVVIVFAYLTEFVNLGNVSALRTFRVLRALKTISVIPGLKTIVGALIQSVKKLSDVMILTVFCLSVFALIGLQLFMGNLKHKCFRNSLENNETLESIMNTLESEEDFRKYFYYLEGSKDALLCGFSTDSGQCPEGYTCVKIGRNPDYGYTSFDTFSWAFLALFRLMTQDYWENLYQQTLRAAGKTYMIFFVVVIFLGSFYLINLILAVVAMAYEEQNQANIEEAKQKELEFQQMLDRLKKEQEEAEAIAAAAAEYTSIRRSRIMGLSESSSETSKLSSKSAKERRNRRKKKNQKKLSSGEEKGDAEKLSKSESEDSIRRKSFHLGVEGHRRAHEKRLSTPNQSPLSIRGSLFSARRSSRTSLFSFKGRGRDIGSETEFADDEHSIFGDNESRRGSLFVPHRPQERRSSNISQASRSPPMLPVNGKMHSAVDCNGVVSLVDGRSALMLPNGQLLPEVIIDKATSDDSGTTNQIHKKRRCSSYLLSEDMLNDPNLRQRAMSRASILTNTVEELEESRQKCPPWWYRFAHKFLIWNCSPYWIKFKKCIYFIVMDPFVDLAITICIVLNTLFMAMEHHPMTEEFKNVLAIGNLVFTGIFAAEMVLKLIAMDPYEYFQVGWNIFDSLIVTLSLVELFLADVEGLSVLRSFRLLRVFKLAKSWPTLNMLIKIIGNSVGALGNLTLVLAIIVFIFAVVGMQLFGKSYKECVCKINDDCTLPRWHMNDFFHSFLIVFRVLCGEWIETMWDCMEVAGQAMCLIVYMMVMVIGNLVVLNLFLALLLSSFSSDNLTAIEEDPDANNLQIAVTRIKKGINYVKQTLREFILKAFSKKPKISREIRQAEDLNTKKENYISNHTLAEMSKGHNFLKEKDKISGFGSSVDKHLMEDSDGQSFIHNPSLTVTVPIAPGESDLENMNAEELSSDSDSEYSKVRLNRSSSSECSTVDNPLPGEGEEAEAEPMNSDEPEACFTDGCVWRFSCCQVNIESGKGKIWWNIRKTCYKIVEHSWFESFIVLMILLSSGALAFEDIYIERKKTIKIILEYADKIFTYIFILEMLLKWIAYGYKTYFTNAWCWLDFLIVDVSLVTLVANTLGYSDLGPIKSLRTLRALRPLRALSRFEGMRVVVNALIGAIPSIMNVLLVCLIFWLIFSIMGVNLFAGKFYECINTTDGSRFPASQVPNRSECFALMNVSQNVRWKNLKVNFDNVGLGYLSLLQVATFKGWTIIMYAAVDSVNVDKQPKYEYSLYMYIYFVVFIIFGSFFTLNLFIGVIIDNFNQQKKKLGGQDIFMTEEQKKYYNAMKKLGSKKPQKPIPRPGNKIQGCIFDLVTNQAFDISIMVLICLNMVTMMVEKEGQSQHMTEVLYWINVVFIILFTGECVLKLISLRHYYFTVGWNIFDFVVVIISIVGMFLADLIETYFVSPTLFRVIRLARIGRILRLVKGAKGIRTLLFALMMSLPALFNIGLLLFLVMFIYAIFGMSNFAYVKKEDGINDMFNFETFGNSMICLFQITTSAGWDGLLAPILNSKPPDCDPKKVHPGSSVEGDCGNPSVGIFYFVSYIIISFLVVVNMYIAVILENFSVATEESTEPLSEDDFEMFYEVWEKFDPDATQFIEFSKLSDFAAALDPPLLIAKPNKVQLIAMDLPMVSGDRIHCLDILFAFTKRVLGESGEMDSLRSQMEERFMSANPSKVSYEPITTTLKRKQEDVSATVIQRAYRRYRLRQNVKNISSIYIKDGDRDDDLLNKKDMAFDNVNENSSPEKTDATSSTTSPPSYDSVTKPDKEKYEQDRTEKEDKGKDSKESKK

[2] = target: Sodium channel protein type 5 subunit alpha (Homo sapiens, UniProt Q14524); test: Inhibition of human Nav1.5 expressed in HEK cells assessed as reduction in sodium current at -60 mV holding potential by PatchXpress platform based whole cell patch clamp electrophysiological assay; parameters: species or system HEK293
Sequence of Sodium channel protein type 5 subunit alpha (Q14524 whole entry): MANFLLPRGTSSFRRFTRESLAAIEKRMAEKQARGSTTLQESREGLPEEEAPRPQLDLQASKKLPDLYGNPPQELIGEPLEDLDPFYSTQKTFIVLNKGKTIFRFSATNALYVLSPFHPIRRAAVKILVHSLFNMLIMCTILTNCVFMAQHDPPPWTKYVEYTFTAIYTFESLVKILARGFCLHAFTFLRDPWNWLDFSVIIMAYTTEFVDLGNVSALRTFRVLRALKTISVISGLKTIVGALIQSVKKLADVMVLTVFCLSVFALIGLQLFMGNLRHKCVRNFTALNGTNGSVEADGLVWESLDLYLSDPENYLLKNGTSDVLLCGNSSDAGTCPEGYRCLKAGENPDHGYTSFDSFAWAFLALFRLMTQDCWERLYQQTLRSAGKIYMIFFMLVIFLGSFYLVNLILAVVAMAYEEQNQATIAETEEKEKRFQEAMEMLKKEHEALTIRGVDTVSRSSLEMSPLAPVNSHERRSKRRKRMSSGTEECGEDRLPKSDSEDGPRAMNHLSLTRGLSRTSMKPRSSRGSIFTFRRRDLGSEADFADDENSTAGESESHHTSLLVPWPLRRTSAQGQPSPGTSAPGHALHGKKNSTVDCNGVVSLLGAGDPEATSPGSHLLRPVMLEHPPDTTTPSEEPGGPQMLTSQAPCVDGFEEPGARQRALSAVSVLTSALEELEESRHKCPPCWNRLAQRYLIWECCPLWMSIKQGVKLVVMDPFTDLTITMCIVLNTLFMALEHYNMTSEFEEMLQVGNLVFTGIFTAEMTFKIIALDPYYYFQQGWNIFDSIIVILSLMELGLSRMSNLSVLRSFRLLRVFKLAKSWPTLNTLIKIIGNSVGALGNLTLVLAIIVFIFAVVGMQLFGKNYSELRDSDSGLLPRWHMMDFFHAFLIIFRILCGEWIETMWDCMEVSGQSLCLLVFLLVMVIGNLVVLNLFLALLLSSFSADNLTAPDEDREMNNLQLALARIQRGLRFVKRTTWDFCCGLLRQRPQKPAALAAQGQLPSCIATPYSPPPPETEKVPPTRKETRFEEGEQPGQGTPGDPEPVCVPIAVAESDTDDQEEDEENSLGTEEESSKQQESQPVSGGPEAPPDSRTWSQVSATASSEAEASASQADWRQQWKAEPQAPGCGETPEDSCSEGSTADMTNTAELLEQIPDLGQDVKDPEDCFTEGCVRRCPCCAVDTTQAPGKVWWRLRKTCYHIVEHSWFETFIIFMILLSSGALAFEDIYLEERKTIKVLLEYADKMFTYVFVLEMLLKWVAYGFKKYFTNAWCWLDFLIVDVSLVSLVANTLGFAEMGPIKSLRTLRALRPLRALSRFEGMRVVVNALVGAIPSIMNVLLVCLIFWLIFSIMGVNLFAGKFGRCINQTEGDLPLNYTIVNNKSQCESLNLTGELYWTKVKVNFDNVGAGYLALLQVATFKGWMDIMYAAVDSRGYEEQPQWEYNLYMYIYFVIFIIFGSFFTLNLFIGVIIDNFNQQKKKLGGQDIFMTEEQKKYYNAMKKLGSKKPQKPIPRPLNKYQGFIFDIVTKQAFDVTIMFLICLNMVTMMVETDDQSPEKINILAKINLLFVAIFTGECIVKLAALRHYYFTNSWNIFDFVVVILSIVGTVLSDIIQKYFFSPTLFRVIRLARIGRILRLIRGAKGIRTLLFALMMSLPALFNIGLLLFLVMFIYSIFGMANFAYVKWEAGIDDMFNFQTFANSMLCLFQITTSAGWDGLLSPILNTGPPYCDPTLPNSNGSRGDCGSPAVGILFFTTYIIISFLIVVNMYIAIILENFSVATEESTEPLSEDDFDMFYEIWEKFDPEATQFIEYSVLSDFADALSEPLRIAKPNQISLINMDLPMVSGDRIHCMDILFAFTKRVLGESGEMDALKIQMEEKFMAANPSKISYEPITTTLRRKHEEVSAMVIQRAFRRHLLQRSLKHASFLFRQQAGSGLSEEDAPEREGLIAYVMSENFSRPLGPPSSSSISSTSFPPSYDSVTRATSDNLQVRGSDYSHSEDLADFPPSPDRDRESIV

[3] = target: CYP3A4 (Homo sapiens, UniProt P08684); test: (§1) Inhibition of CYP3A4 (unknown origin) using midazolam substrate at 10 uM; format: ADME; conditions: probe midazolam
Sequence of CYP3A4 (P08684 whole entry): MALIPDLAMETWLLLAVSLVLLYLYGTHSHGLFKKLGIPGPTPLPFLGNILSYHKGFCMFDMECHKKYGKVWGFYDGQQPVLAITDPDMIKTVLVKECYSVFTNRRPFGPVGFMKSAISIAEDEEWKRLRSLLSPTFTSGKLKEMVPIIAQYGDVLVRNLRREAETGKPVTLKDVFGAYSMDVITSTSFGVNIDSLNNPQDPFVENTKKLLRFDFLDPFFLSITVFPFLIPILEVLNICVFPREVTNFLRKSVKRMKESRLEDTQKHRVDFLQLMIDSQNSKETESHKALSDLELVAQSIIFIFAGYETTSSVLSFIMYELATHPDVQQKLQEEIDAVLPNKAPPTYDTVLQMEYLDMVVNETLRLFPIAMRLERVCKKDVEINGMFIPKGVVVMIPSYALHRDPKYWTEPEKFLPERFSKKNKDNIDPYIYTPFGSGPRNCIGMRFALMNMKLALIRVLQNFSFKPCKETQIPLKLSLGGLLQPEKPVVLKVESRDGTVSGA

[4] = target: CYP2D6 (Homo sapiens, UniProt P10635); test: (§2) Inhibition of CYP2D6 (unknown origin) using bufuralol substrate at 10 uM; format: ADME; conditions: probe bufuralol
Sequence of CYP2D6 (P10635 whole entry): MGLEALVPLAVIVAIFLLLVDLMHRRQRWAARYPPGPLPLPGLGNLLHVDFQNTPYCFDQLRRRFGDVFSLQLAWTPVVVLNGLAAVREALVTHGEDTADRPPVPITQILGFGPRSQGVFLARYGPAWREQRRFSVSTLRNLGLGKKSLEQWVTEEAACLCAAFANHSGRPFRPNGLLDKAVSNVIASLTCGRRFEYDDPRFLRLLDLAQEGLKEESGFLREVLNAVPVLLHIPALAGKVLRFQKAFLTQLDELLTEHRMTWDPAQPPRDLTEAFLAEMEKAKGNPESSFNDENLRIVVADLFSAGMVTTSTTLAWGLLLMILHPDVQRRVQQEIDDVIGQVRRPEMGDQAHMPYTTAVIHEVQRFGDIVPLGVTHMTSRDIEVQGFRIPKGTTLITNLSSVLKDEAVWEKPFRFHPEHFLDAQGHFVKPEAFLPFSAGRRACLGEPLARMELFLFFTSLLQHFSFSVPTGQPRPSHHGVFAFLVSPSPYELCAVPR

[5] = target: CYP2C9 (Homo sapiens, UniProt P11712); test: (§3) Inhibition of CYP2C9 (unknown origin) using diclofenac substrate at 10 uM; format: ADME; conditions: probe diclofenac
[6] = target: CYP2C19 (Homo sapiens, UniProt P33261); test: (§4) Inhibition of CYP2C19 (unknown origin) using omeprazole substrate at 10 uM; format: ADME; conditions: probe omeprazole
[7] = target: T1, Cytochrome P450 3A4 (Homo sapiens, UniProt P08684); test: as §1; format: ADME; conditions: 10 µM
T1 sequence (P08684 whole entry): as the sequence (P08684 whole entry) above

[8] = target: T2, Cytochrome P450 2D6 (Homo sapiens, UniProt P10635); test: as §2; format: ADME; conditions: 10 µM
T2 sequence (P10635 whole entry): as the sequence (P10635 whole entry) above

[9] = target: T3, Cytochrome P450 2C19 (Homo sapiens, UniProt P33261); test: as §4; format: ADME; conditions: 10 µM
[10] = organism: Homo sapiens; test: Selectivity index, ratio of IC50 for human Nav1.5 to IC50 for human Nav1.7
[11] = target: T1, Cytochrome P450 3A4; test: Inhibition of CYP3A4 (unknown origin) using midazolam substrate; format: ADME
[12] = target: T2, Cytochrome P450 2D6; test: Inhibition of CYP2D6 (unknown origin) using bufuralol substrate; format: ADME
[13] = target: T4, Cytochrome P450 2C9 (Homo sapiens, UniProt P11712); test: Inhibition of CYP2C9 (unknown origin) using diclofenac substrate; format: ADME
[14] = target: T3, Cytochrome P450 2C19; test: Inhibition of CYP2C19 (unknown origin) using omeprazole substrate; format: ADME
[15] = target: T4, Cytochrome P450 2C9; test: as §3; format: ADME; conditions: 10 µM

Row | SMILES | IC50 [1] [nM] | inhibition at 10 µM [3] [%] | inhibition at 10 µM [4] [%] | inhibition at 10 µM [5] [%] | inhibition at 10 µM [6] [%] | IC50 [2] [nM] | further results
1 | O=S(=O)(Nc1ncns1)c1cc(F)c(OC[C@@H]2CCNC[C@H]2c2ccc(F)cc2)cc1F (relative stereo) | 32 | 89 | 61 | 97 | 69 | 5900 | 
2 | CC(C)(C)OC(=O)N1CC[C@@H](c2ccc(Cl)cc2)[C@H](COc2cc(F)c(S(=O)(=O)Nc3ncns3)cc2F)C1 (relative stereo) | 164 | 98 | 78 | 100 | 100 |  | 
3 | O=S(=O)(Nc1ncns1)c1cc(F)c(OC[C@@H]2CNCC[C@H]2c2ccc(Cl)cc2)cc1F | 59 |  |  |  |  |  | inhibition (INH) [7]: 96%; inhibition (INH) [8]: 82%; inhibition (INH) [9]: 84%
4 | O=C1C[C@@H](c2ccc(F)cc2)[C@H](COc2cc(F)c(S(=O)(=O)Nc3ncns3)cc2F)CN1 (relative stereo) | 82 | 95 | 6 | 58 | 64 | > 10000 | 
5 | O=S(=O)(Nc1ncns1)c1cc(F)c(OC[C@@H]2CNCC[C@H]2c2ccccc2)cc1F (relative stereo) | 7.9 | 95 | 82 | 81 | 81 | > 10000 | Ratio IC50 [10]: > 1000
6 | O=S(=O)(Nc1ncc(F)cn1)c1cc(F)c(OC[C@H]2CNCC[C@@H]2c2ccc(Cl)cc2)cc1F |  |  |  |  |  | > 10000 | IC50 [11]: > 10000 nM; IC50 [12]: > 10000 nM; IC50 [13]: > 10000 nM; IC50 [14]: > 10000 nM
7 | O=S(=O)(Nc1cccnn1)c1cc(F)c(OC[C@@H]2CNCC[C@H]2c2ccc(Cl)cc2)cc1F (relative stereo) | 171 | 13 | 37 | 49 | 36 |  | 
8 | O=S(=O)(Nc1ncns1)c1cc(F)c(OC[C@@H]2CN(CCF)CC[C@H]2c2ccc(Cl)cc2)cc1F | 7 | 98 | 90 | 97 | 96 | > 10000 | 
9 | O=S(=O)(Nc1ncns1)c1cc(F)c(OC[C@@H]2CN(CC(F)F)CC[C@H]2c2ccc(Cl)cc2)cc1F (relative stereo) | 38 | 98 | 61 | 100 | 88 |  | 
10 | O=S(=O)(Nc1ncns1)c1cc(F)c(OC[C@H]2CNCC[C@H]2c2ccc(Cl)cc2)cc1F | 237 |  |  |  |  |  | 
11 | CN1CC[C@@H](c2ccc(Cl)cc2)[C@H](COc2cc(F)c(S(=O)(=O)Nc3ncns3)cc2F)C1 |  |  |  |  |  |  | IC50 ([2]; hek293): > 10000 nM; inhibition (INH) [7]: 96%; inhibition (INH) [8]: 69%; inhibition (INH) [15]: 93%; inhibition (INH) [9]: 71%
12 | O=S(=O)(Nc1ncns1)c1cc(F)c(OCC2(F)CNCCC2c2ccc(F)cc2)cc1F (stereo not given) |  | 94 | 78 | 99 | 71 | > 10000 | 
13 | O=S(=O)(Nc1ncns1)c1cc(F)c(OC[C@H]2CNCC[C@@H]2c2ccc(Cl)cc2)cc1F |  |  |  |  |  |  | IC50 [11]: 150 nM; IC50 [12]: 260 nM; IC50 [13]: 630 nM; IC50 [14]: > 10000 nM
14 | O=S(=O)(Nc1ncns1)c1cc(F)c(OC[C@@H]2CNCC[C@H]2c2ccc(Cl)cc2)cc1F (racemic) |  | 94 | 93 | 100 | 75 |  | 
15 | CN1CC[C@H](c2ccc(Cl)cc2)[C@@H](COc2cc(F)c(S(=O)(=O)Nc3ncns3)cc2F)C1 | 4 |  |  |  |  | > 10000 | IC50 [11]: 140 nM; IC50 [12]: 270 nM; IC50 [13]: 880 nM; IC50 [14]: > 10000 nM
16 | CN1CC[C@@H](c2ccc(Cl)cc2)[C@H](COc2cc(F)c(S(=O)(=O)Nc3ncns3)cc2F)C1 (relative stereo) | 11 | 97 |  | 97 | 86 | > 10000 | inhibition (INH) [8]: 93%
17 | O=S(=O)(Nc1ncns1)c1cc(F)c(OC[C@@H]2CCCC[C@H]2c2ccc(Cl)cc2)cc1F (relative stereo) | 280 | 99 | 66 | 100 | 95 | 24700 | 
18 | O=S(=O)(Nc1ncns1)c1cc(F)c(OC[C@@H]2CNCC[C@H]2c2ccc(F)cc2)cc1F (relative stereo) | 6.8 | 96 | 92 | 100 | 97 | > 10000 | 
19 | O=S(=O)(Nc1ncns1)c1cc(F)c(OC[C@@H]2CN(CC(F)(F)F)CC[C@H]2c2ccc(Cl)cc2)cc1F (relative stereo) | 130 | 97 | 47 | 100 | 85 | 2600 | 

Second part, led by results:

Row | IC50 [1] [nM] | inhibition at 10 µM [3] [%] | inhibition at 10 µM [4] [%] | inhibition at 10 µM [5] [%] | inhibition at 10 µM [6] [%] | SMILES | IC50 [2] [nM] | further results
20 |  | 25 | 35 | 73 | 26 | O=S(=O)(Nc1ncc(F)cn1)c1cc(F)c(OC[C@@H]2CNCC[C@H]2c2ccc(Cl)cc2)cc1F (relative stereo) | > 10000 | 
21 |  | 11 | 40 | 100 | 20 | O=S(=O)(Nc1ncc(Cl)s1)c1cc(F)c(OC[C@@H]2CNCC[C@H]2c2ccc(Cl)cc2)cc1F (relative stereo) |  | 
22 |  | 22 | 48 | 99 | 42 | Cc1cnc(NS(=O)(=O)c2cc(F)c(OC[C@@H]3CNCC[C@H]3c3ccc(Cl)cc3)cc2F)s1 (relative stereo) |  | 
23 | 13 | 95 | 81 | 100 | 59 | Cc1ccc([C@H]2CCNC[C@@H]2COc2cc(F)c(S(=O)(=O)Nc3ncns3)cc2F)cc1 (relative stereo) | > 10000 | 
24 | 53 | 12 | 34 | 60 | 15 | O=S(=O)(Nc1ncccn1)c1cc(F)c(OC[C@@H]2CNCC[C@H]2c2ccc(Cl)cc2)cc1F (relative stereo) | > 10000 | 
25 |  | 57 | 94 | 91 | 72 | O=S(=O)(Nc1ccncn1)c1cc(F)c(OC[C@@H]2CNCC[C@H]2c2ccc(Cl)cc2)cc1F (relative stereo) | > 10000 | 
26 | 194 | 61 | 55 | 100 | 73 | Cc1nsc(NS(=O)(=O)c2cc(F)c(OC[C@@H]3CNCC[C@H]3c3ccc(Cl)cc3)cc2F)n1 (relative stereo) |  | 
27 | 1890 | 24 | 38 | 80 | 29 | Cc1cc(NS(=O)(=O)c2cc(F)c(OC[C@@H]3CNCC[C@H]3c3ccc(Cl)cc3)cc2F)no1 (relative stereo) |  | 
28 |  | 90 | 85 | 96 | 74 | O=S(=O)(Nc1ncns1)c1cc(F)c(OC[C@H]2CNCC[C@@H]2c2ccc(F)c(F)c2)cc1F (relative stereo) | > 10000 | 
29 |  | 96 | 85 | 100 | 60 | O=S(=O)(Nc1ncns1)c1cc(F)c(OC[C@H]2CNCC[C@@H]2c2ccc(Cl)c(F)c2)cc1F (relative stereo) | > 10000 | 
30 | 50 | 93 | 97 | 100 | 90 | O=S(=O)(Nc1ncns1)c1cc(F)c(OC[C@@H]2CNC[C@H]2c2ccc(Cl)cc2)cc1F (relative stereo) |  | 
31 | 84 | 30 | 54 | 99 | 35 | O=S(=O)(Nc1nncs1)c1cc(F)c(OC[C@@H]2CNCC[C@H]2c2ccc(Cl)cc2)cc1F (relative stereo) | > 10000 | 
32 | 71 | 42 | 50 | 99 | 56 | O=S(=O)(Nc1ccc(F)cn1)c1cc(F)c(OC[C@@H]2CNCC[C@H]2c2ccc(Cl)cc2)cc1F (relative stereo) | > 10000 | 
